This note sets out measurements from article PMC9655717, “New Molecules of Diterpene Origin with Inhibitory Properties toward α-Glucosidase” (International Journal of Molecular Sciences, 2022).

The nature of data set [1]: DPPH radical scavenging assay. Conditions: DPPH 0.1 mM in methanol, 25°C, 30 min. The procedure:
DPPH radical scavenging assay as described by Ha. The hydrogen atom donating ability of the plant extractives was determined by the decolorization of methanol solution of 2,2-diphenyl-1-picrylhydrazyl (DPPH). DPPH produces purple color in methanol solution and fades to shades of yellow color in the presence of antioxidants. […]
DPPH (0.1 mM) was diluted in methanol. 200 μL of this solution was added to 1.3 μL of various concentrations of compounds in DMSO (256.0, 64.0, 16.0, and 4.0 μg/mL). The mixture was performed by a 96-well plate at 25 °C in 30 min. Then, absorbance was determined by Epoch™ Microplate Spectrophotometer (at 517 nm). The percentage of DPPH quenching activity was computed by the following formula:
Inhibitory percentage SC (%) = [(Ao - A1)/Ao] × 100. where AO was defined as the absorbance of control reaction, and A1 represented for the absorbance in the presence of test or standard sample. Each experiment was repeated three times. Quercetin was used as a reference compound. […]
(Loss of DPPH colour is used to gauge radical scavenging.)

Data set [2] addresses T1, yeast α-GLy (α-glucosidase, Sigma G0660) (Saccharomyces cerevisiae, UniProt P53341).
T1 construct: purchased Sigma G0660
Put plainly: biochemical. It counts as biochemical. As to conditions: for IC50 / α-GLy inhibitory activity, in words: yeast α-glucosidase; for IC50: 37°C, pH 6.8. The method, then: S1. Materials and Methods […]
glucosidase inhibition assay. α-Glucosidase enzyme inhibition assay was carried out in a 96-well microplate. The method’s principle based on the hydrolyzed reaction of 4-nitrophenyl-α-D-glucopiranoside with α-glucosidase enzyme into yellow 4- […]
p-Nitrophenyl α-D-Glucoside a- Gl ucosidas e α-D-Glucose + p- Nitrophenol α-Glucosidase inhibitory activity assay was performed following the modified method of Pistia Brueggeman and Hollingsworth with slight modification. Quinopimaric […]
concentrations of 256, 64, 16, 4 and 1 µg/mL. In a 96-well plate, a reaction mixture containing 20 μL of phosphate buffer (100 mM; pH 6.8), 20 μL of α-glucosidase (0.3 U/mL, Sigma G0660) (this concentration was determined by a series of α-glucosidase […]
linearity between the enzyme concentration and the absorbance of yellow color mixture after reaction which was approximately 5-fold higher than the back ground and at least […]
concentrations was pre-incubated for 10 min at 37°C. Then 20 μL of […] p-nitrophenyl α-D-glucopyranoside (Sigma N1377) was added to the mixture as a substrate. After further incubation at 37°C for 30 min, the reaction was stopped by adding 80 μL of 0.1 […]
solution were prepared using the phosphate buffer […]; pH 6.8. […]
as a positive control and water as negative control. The yellow color produced was quantitated by colorimetric analysis and reading the absorbance at 410 nm. Each experiment was performed in triplicates, along with appropriate blanks. The solvent DMSO was use as negative control to evaluate its effect on α-glucosidase activity. […]
or substrate in negative control. Back ground was determined by volume of buffer as […]
The % inhibition has been obtained using the formula:
% inhibition = {Absorbance (control) –Absorbance (sample)}/Absorbance (control) IC50 value is defined as the concentration of samples inhibiting 50% of α-glucosidase activity under the stated assay conditions. […]

Setting [3] is: IC50 ± SE, α-glucosidase inhibition.
Where [4] appears, read: read-out: IC50 ± SE, α-glucosidase inhibition.

Each structure is given as a SMILES string. Values after ≈ are worked out from the molar mass of the structure shown. Like-named read-outs stand apart in the source and are kept apart here. Where only a bound is given, the exact number is not on record here.

T1 sequence (P53341 whole entry): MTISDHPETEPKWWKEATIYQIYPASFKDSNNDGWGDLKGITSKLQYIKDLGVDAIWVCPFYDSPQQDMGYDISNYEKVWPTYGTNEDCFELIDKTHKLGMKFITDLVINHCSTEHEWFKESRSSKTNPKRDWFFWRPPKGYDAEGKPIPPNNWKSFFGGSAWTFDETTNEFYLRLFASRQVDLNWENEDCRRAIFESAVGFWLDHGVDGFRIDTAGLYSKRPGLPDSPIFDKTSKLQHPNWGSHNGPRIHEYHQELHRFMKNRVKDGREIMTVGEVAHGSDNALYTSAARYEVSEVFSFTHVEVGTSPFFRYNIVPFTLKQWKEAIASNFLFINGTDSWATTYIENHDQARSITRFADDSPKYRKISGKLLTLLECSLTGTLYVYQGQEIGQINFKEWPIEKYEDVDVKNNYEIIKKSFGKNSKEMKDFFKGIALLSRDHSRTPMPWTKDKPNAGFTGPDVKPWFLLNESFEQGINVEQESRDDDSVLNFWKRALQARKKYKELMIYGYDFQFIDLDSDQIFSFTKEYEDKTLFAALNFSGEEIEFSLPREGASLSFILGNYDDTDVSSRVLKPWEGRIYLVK

For the compound `O=c1c(O)c(-c2ccc(O)c(O)c2)oc2cc(O)cc(O)c12` [Quercetin, reference compound], in data set [1], the “IC50 values, antioxidant test (DPPH)” value turned out to be 8.01 ± 0.15 µg/mL (≈ 26.5 µM).

What is called IC50 is the concentration needed to halve the response being measured. As usually defined, the melting point is the temperature of the solid-liquid transition. Consider `Cc1[nH]c2c3c(c(O)cc2c1C#N)[C@H]1C[C@@H]2[C@@]4(C)CCC[C@@](C)(C(=O)O)[C@@H]4CC[C@@]32C=C1C(C)C` [Compound 44, 1′-Cyano-1-hydroxy-13-isopropyl-7,10a,2′-trimethyl-5,6,6b,7,8,9,10,10a,10b,11,12,13-dodecahydro-12,4b-ethenophenanthro [2,1-g]indole-7-carboxylic acid], for which the melting point was 127 to 129 °C. This compound returned an IC50 in data set [2] (setting [3]) of 68.22 ± 0.03 µM. For the same compound, the “α-GLy inhibitory activity, in words” value in data set [2] is reported as “very good activity”.

For the compound `COC(=O)[C@]1(C)CCC[C@]2(C)[C@H]3C[C@@H]4[C@H]5[C@@H]6CC7NC(=S)NC7[C@H]5[C@@]3(CC[C@H]21)C[C@@]4(C(C)C)O6` (stereo partly shown) [Compound 32], the IC50 in data set [2] (setting [3]) is 9.66 ± 0.77 µM.

As to `COC(=O)[C@]1(C)CCC[C@]2(C)[C@H]3C[C@@H]4[C@H]5[C@@H]6CC(=Cc7ccc(OC)c(OC)c7)C(=O)[C@H]5[C@@]3(CC[C@H]21)C[C@@]4(C(C)C)O6` [Compound 28], the IC50 in data set [2] (setting [4]) amounted to 12.7 ± 0.21 µM.

Consider `COC(=O)[C@]1(C)CCC[C@]2(C)[C@H]3C[C@@H]4[C@H]5[C@@H]6CC(=Cc7ccco7)C(=O)[C@H]5[C@@]3(CC[C@H]21)C[C@@]4(C(C)C)O6` [Compound 29], for which the IC50 in data set [2] (setting [4]) came out at 1.63 ± 0.041 µM.

For the compound `COC(=O)[C@]1(C)CCC[C@]2(C)[C@H]3C[C@H]4C(C(C)C)=C[C@]3(CC[C@H]21)[C@@H]1C(=O)C(=Cc2ccc(OC)cc2)C[C@H](O)[C@@H]14` [Compound 6], the IC50 in data set [2] (setting [4]) amounted to 1.63 ± 0.006 µM.

`COC(=O)C(C)NC(=O)[C@]1(C)CCC[C@]2(C)[C@H]3C[C@H]4C(C(C)C)=C[C@]3(CC[C@H]21)[C@@H]1C(=O)CCC(=O)[C@@H]14` (stereo partly shown) [Compound 12]: the IC50 in data set [2] (setting [3]) is > 255 µM.

As to `COC(=O)[C@]1(C)CCC[C@]2(C)[C@H]3C[C@@H]4[C@H]5[C@@H]6Cc7cn[nH]c7[C@H]5[C@@]3(CC[C@H]21)C[C@@]4(C(C)C)O6` [Compound 31], in data set [2] (setting [3]), the IC50 was > 255 µM.

In the case of `CC(C)C1=CC23CCC4C(C)(C(=O)O)CCCC4(C)C2CC1C1=C3C(=O)C=CC1=O` (stereo not shown) [Compound 40, 1a,4a-dehydroquinopimaric acid], the IC50 in data set [2] (setting [3]) is 7.09 ± 0.12 µM.

On to `COC(=O)[C@]1(C)CCC[C@]2(C)[C@H]3C[C@@H]4[C@H]5[C@@H]6CC(=Cc7ccccc7)C(=O)[C@H]5[C@@]3(CC[C@H]21)C[C@@]4(C(C)C)O6` [Compound 26], for which the IC50 in data set [2] (setting [4]) was determined as 13.08 ± 0.01 µM.

Regarding `COC(=O)c1c(C)[nH]c2c3c(c(OCCC#N)cc12)C1CC2C3(C=C1C(C)C)CCC1C(C)(C(=O)OC)CCCC12C` (stereo not shown) [Compound 47, Methyl 1-(8′-cyanoethoxy)-13-isopropyl-1′-(ethoxycarbonyl)-7,10a,2′-trimethyl-5,6,6b,7,8,9,10,10a,10b,11,12,13-dodecahydro-12,4b-ethenophenanthro [2,1-g]indole-7-carboxylate], the melting point was in the range of 127 to 129 °C. For the same compound, the IC50 in data set [2] (setting [3]) stood at 4.95 ± 0.25 µM.

On to `CC(C)C1=C[C@@]23CC[C@@H]4[C@](C)(CCC[C@@]4(C)C(=O)N4CCCNCC4)[C@H]2C[C@@H]1[C@H]1C(=O)CCC(=O)[C@H]13` [Compound 11], for which the IC50 in data set [2] (setting [3]) was > 255 µM.

Turning to `COC(=O)[C@]1(C)CCC[C@]2(C)[C@H]3C[C@@H]4[C@H]5[C@@H]6CC(=Cc7ccc(OC)cc7)C(=O)[C@H]5[C@@]3(CC[C@H]21)C[C@@]4(C(C)C)O6` [Compound 27], the IC50 in data set [2] (setting [4]) is > 255 µM.

With `COC(=O)[C@]1(C)CCC[C@@]2(C)[C@H]1CC[C@]13C=C(C(C)C)[C@H](C[C@H]21)C1=C3C(=O)C=CC1=O` [Compound 41, 1a,4a-dehydroquinopimaric acid methyl ester], the IC50 in data set [2] (setting [3]) is > 255 µM.

With `COC(=O)[C@]1(C)CCC[C@]2(C)[C@H]3C[C@H]4C(C(C)C)=C[C@]3(CC[C@H]21)[C@@H]1C(=O)CC[C@H](OC(=O)c2cccnc2)[C@@H]14` [Compound 19], the IC50 in data set [2] (setting [3]) is > 255 µM.

The compound `CCOC(=O)c1c(C)[nH]c2c3c(c(O)cc12)C1CC2C3(C=C1C(C)C)CCC1C(C)(C(=O)O)CCCC12C` (stereo not shown) [Compound 42, 1-Hydroxy-13-isopropyl-1′-(ethoxycarbonyl)-7,10a,2′-trimethyl-5,6,6b,7,8,9,10,10a, 10b,11,12,13-dodecahydro-12,4b-ethenophenanthro-[2,1-g]indole-7-carboxylic acid] yielded a melting point of 131 to 133 °C. The IC50 in data set [2] (setting [3]) was 2.52 ± 0.34 µM. In data set [2], the “α-GLy inhibitory activity, in words” value is listed as “very good activity”.

As to `COC(=O)[C@]1(C)CCC[C@]2(C)[C@H]3C[C@H]4C(C(C)C)=C[C@]3(CC[C@H]21)[C@@H]1C(=O)C(=Cc2ccco2)C[C@H](O)[C@@H]14` [Compound 7], the IC50 in data set [2] (setting [4]) was determined as 2.5 ± 0.011 µM.

`CC(C)C1=C[C@@]23CC[C@@H]4[C@](C)(CCC[C@@]4(C)C(=O)O)[C@H]2C[C@@H]1[C@H]1C(=O)CCC(=O)[C@H]13` [Compound 8, 2,3-dihydroquinopimaric acid] came in with an IC50 in data set [2] (setting [3]) of 35.6 ± 0.92 µM.

Turning to `COC(=O)[C@]1(C)CCC[C@]2(C)[C@H]3C[C@H]4C(C(C)C)=C[C@]3(CC[C@H]21)[C@H]1[C@@H]4[C@@H](O)CC[C@@H]1O` [Compound 21], the IC50 in data set [2] (setting [3]) is > 255 µM.

As to `COC(=O)[C@]1(C)CCC[C@]2(C)[C@H]3C[C@H]4C(C(C)C)=C[C@]3(CC[C@H]21)[C@H]1[C@@H]4[C@@H](OCCC(N)=NO)CC[C@@H]1OCCC(N)=NO` [Compound 23], the IC50 in data set [2] (setting [3]) was > 255 µM.

With `C#CCNC(=O)[C@]1(C)CCC[C@]2(C)[C@H]3C[C@H]4C(C(C)C)=C[C@]3(CC[C@H]21)[C@@H]1C(=O)CCC(=O)[C@@H]14` [Compound 10], the IC50 in data set [2] (setting [3]) is > 255 µM.

Regarding `CC(C)C1=C[C@@]23CC[C@@H]4[C@](C)(CCC[C@@]4(C)C(=O)NCCCCNCCCN)[C@H]2C[C@@H]1[C@H]1C(=O)CCC(=O)[C@H]13` [Compound 9], the IC50 in data set [2] (setting [4]) is 35.2 ± 0.71 µM.

For the compound `C#CCOC(=O)C1(C)CCCC2(C)C1CCC13C=C(C(C)C)C(CC12)c1c(O)cc2c(C(=O)OCC)c(C)[nH]c2c13` (stereo not shown) [Compound 46, Ethyl 7-propynyl 1-hydroxy-13-isopropyl-7,10a,2′-trimethyl-5,6,6b,7,8,9,10,10a,10b, 11,12,13-dodecahydro-12,4b-ethenophenanthro [2,1-g]indole-7,1′-dicarboxylate], the melting point lay within 98 to 100 °C. Besides, the IC50 in data set [2] (setting [3]) was > 255 µM.

With `COC(=O)[C@]1(C)CCC[C@]2(C)[C@H]3C[C@H]4C(C(C)C)=C[C@]3(CC[C@H]21)[C@@H]1C(=O)CC[C@H](OC(C)=O)[C@@H]14` [Compound 15], the IC50 in data set [2] (setting [3]) was > 255 µM.

For `CC(C)C1=C[C@@]23CC[C@H]4[C@](C)(CO)CCC[C@]4(C)[C@H]2C[C@@H]1[C@@H]1[C@H]3[C@@H](O)CC[C@@H]1O` [Compound 2], in data set [2] (setting [3]), the IC50 is > 255 µM.

In the case of `COC(=O)[C@]1(C)CCC[C@]2(C)[C@H]3C[C@@H]4[C@H]5[C@@H]6CCC(=NOCCC#N)[C@H]5[C@@]3(CC[C@H]21)C[C@@]4(C(C)C)O6` [Compound 5], the IC50 in data set [2] (setting [3]) was > 255 µM.

With `COC(=O)[C@]1(C)CCC[C@]2(C)[C@H]3C[C@@H]4[C@H]5[C@@H]6CC(=Cc7cccnc7)C(=O)[C@H]5[C@@]3(CC[C@H]21)C[C@@]4(C(C)C)O6` [Compound 30], the IC50 in data set [2] (setting [4]) is 38.8 ± 0.33 µM.

`CC(C)C1=C[C@@]23CC[C@@H]4[C@](C)(CCC[C@@]4(C)C(=O)O)[C@H]2C[C@@H]1[C@H]1C(=O)C=CC(=O)[C@H]13` [Compound 1, quinopimaric acid]: the IC50 in data set [2] (setting [3]) was 59.59 ± 0.18 µM. In addition, the “times more active (potent) than acarbose” value in data set [2] (ratio of α-GLy IC50 values versus acarbose) was “three times higher”.

On to `COC(=O)[C@]1(C)CCC[C@]2(C)[C@H]3C[C@H]4C(C(C)C)=C[C@]3(CC[C@H]21)[C@@H]1c2[nH]c3ccccc3c2-c2c([nH]c3ccccc23)[C@@H]14` [Compound 34], for which the IC50 in data set [2] (setting [3]) was > 255 µM.

For the compound `COC(=O)[C@]1(C)CCC[C@]2(C)[C@H]3C[C@H]4C(C(C)C)=C[C@]3(CC[C@H]21)[C@@H]1C(=O)CC[C@H](OC(=O)CCC(=O)O)[C@@H]14` [Compound 17], in data set [2] (setting [3]), the IC50 is > 255 µM.
